This assay deals with human AMPK (full-length γ1, β1 and α1 subunits) (Homo sapiens (Human), UniProt Q13131+Q9Y478). Put plainly: AMPK in vitro biochemical assay (33P-based, SAMS peptide, PP2A dephosphorylation). The following applies: for EC50: activation of phosphorylated AMPK, 33P-ATP, SAMS peptide, PP2A treatment, 4-parameter fit; for Emax / Maximum: counts as % of positive control wells (enzyme, allosteric activator or AMP, PP2A and substrate); for Emax: read-out: Maximum. Put shortly: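 Phosphorylated full-length α1β1γ1 AMPK (E. coli-expressed, His-purified, gel-filtered) preincubated 15 min RT with compound in HEPES pH 7.5, 10 mM MgCl2 buffer, then PP2A added to dephosphorylate pThr172.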
Chain of human AMPK (full-length γ1, β1 and α1 subunits) (Q13131 whole entry): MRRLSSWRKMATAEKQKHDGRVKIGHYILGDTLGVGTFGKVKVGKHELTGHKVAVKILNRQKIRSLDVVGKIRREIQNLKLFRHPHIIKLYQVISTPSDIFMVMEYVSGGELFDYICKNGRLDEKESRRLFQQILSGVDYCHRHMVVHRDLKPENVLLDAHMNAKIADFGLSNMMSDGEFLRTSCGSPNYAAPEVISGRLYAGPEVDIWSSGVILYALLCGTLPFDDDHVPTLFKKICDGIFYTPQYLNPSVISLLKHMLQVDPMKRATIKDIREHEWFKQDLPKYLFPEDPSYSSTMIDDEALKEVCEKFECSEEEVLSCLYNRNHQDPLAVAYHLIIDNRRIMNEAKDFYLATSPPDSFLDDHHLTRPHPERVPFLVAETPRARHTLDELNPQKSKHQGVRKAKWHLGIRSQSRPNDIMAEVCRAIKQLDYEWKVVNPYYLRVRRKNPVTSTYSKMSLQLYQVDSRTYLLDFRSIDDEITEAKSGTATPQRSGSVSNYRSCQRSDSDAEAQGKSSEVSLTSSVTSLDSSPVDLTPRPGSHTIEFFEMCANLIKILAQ
Chain of human AMPK (full-length γ1, β1 and α1 subunits) (Q9Y478 whole entry): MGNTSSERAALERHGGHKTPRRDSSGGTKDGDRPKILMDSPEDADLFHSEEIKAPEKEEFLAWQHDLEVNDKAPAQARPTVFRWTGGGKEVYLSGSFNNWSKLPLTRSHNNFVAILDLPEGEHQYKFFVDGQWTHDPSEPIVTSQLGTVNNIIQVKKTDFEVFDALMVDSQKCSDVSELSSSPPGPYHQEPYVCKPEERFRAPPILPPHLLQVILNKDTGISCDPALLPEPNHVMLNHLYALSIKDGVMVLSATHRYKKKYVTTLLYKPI
Chain of human AMPK (full-length γ1, β1 and α1 subunits) (P54619 whole entry partner): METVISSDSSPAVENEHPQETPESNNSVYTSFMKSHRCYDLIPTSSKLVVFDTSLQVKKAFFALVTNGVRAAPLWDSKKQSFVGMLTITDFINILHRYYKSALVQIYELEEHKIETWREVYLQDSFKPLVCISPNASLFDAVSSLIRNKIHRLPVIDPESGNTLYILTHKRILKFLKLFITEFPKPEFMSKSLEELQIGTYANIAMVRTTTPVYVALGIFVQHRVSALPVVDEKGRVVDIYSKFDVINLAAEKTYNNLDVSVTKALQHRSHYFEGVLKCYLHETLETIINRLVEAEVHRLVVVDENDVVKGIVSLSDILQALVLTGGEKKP

What is called EC50 is the midpoint of the concentration-response curve. A lower EC50 goes with a more potent agent.

On to `CC(=O)N1CCC(c2ccc(-c3cc4c(C(=O)O)n[nH]c4cc3Cl)cc2)CC1` [Example 117, 5-(4-(1-Acetylpiperidin-4-yl)phenyl)-6-chloro-1H-indazole-3-carboxylic acid], for which the EC50 is 90.2 nM and the Emax was determined as 107%. For `COc1ccc(-c2cc3c(C(=O)NS(=O)(=O)c4ccccc4)n[nH]c3cc2Cl)cc1` [Example 118, 6-Chloro-5-(4-methoxyphenyl)-N-(phenylsulfonyl)-1H-indazole-3-carboxamide], the midpoint of the response, the EC50, lay at 169 nM and the Emax came out at 125%. In the case of `O=C(O)c1n[nH]c2cc(Cl)c(-c3ccc(OCCO)cc3)cc12` [Example 119, 6-Chloro-5-(4-(2-hydroxyethoxy)phenyl)-1H-indazole-3-carboxylic acid], the EC50 amounted to 44.8 nM and the Emax is 97%. `O=C(O)c1n[nH]c2cc(Cl)c(-c3ccc(C4CC(O)C4)cc3)cc12` [Example 120, 6-Chloro-5-(4-((1S,3S)-3-hydroxycyclobutyl)phenyl)-1H-indazole-3-carboxylic acid] displayed a Maximum of 88%. The compound `O=C(O)c1n[nH]c2cc(Cl)c(-c3ccc([C@H]4C[C@@H](O)C4)cc3)cc12` [Example 120, 6-Chloro-5-(4-((1S,3S)-3-hydroxycyclobutyl)phenyl)-1H-indazole-3-carboxylic acid] had a concentration giving a half-maximal response (EC50) of 52.4 nM. As for `O=C(O)c1n[nH]c2cc(Cl)c(-c3ccc4c(c3)OCCO4)cc12` [Example 121, 6-Chloro-5-(2,3-dihydrobenzo[b][1,4]dioxin-6-yl)-1H-indazole-3-carboxylic acid], the EC50 worked out at 369 nM and the Emax worked out at 102%. For the compound `NC(=O)C1(c2ccc(-c3cc4c(C(=O)O)n[nH]c4cc3Cl)cc2)CCC1` [Example 122, 5-(4-(1-Carbamoylcyclobutyl)phenyl)-6-chloro-1H-indazole-3-carboxylic acid], the EC50 worked out at 160 nM and the Emax came out at 75%. The matching figures for `NC(=O)Cc1ccc(-c2cc3c(C(=O)O)n[nH]c3cc2Cl)cc1` [Example 123, 5-(4-(2-Amino-2-oxoethyl)phenyl)-6-chloro-1H-indazole-3-carboxylic acid]: 100 nM and 57%. Take `COC(C)c1ccc(-c2cc3c(C(=O)O)n[nH]c3cc2Cl)cc1` (stereo not drawn) [Example 125, 6-Chloro-5-(4-(1-methoxyethyl)phenyl)-1H-indazole-3-carboxylic acid]: the EC50 was determined as 132 nM and the Emax is 90%.

In turn, `O=C(O)c1n[nH]c2cc(Cl)c(-c3ccc(C4CC(O)C4)cc3)cc12` [Example 126, 6-Chloro-5-(4-((1R,3R)-3-hydroxycyclobutyl)phenyl)-1H-indazole-3-carboxylic acid] came in with a Maximum of 110%. As to `O=C(O)c1n[nH]c2cc(Cl)c(-c3ccc([C@H]4C[C@H](O)C4)cc3)cc12` [Example 126, 6-Chloro-5-(4-((1R,3R)-3-hydroxycyclobutyl)phenyl)-1H-indazole-3-carboxylic acid], it took 26.8 nM to reach a half-maximal effect (EC50). As for `O=C(O)c1n[nH]c2cc(Cl)c(-c3ccc(C4(CO)CCCC4)cc3)cc12` [Example 127, 6-Chloro-5-(4-(1-(hydroxymethyl)cyclopentyl)phenyl)-1H-indazole-3-carboxylic acid], the EC50 was determined as 17.2 nM and the Emax amounted to 81%. As for `O=C(O)c1n[nH]c2cc(Cl)c(-c3ccc(N4CCOCC4)cc3)cc12` [Example 128, 6-Chloro-5-(4-morpholinophenyl)-1H-indazole-3-carboxylic acid], the EC50 was 19.8 nM and the Emax amounted to 70%.

For the compound `COc1cc(-c2cc3c(C(=O)O)n[nH]c3cc2Cl)ccc1C1(O)CCC1` [Example 131, 6-Chloro-5-[4-(1-hydroxycyclobutyl)-3-methoxyphenyl]-1H-indazole-3-carboxylic acid], the EC50 came out at 17.9 nM and the Emax is 95%.

`O=S(=O)(O)c1c[nH]c2cc(Cl)c(-c3ccc(-c4ccccc4O)cc3)cc12` [Example 133, 6-Chloro-5-(2′-hydroxy-[1,1′-biphenyl]-4-yl)-1H-indole-3-sulfonic acid]: the EC50 was above 50000 nM. For `O=S(=O)(O)c1c[nH]c2cc(Cl)c(-c3ccc(C4CCOCC4)cc3)cc12` [Example 134, 6-Chloro-5-(4-(tetrahydro-2H-pyran-4-yl)phenyl)-1H-indole-3-sulfonic acid], the EC50 is 82.8 nM and the Emax is 16%. With `O=C(O)c1c[nH]c2cc(F)c(-c3ccc(-c4ccccc4O)cc3)cc12` [Example 135, 6-fluoro-5-(2′-hydroxybiphenyl-4-yl)-1H-indole-3-carboxylic acid], the EC50 came to 6.5 nM and the Emax came out at 82%. For `O=C(O)c1c[nH]c2cc(Cl)c(-c3ccc(C4CCOCC4)cc3)cc12` [Example 136, 6-Chloro-5-[4-(tetrahydro-2H-pyran-4-yl)phenyl]-1H-indole-3-carboxylic acid], the EC50 turned out to be 39.3 nM and the Emax is 100%.

Take `O=C(O)c1c[nH]c2cc(Cl)c(-c3ccc([C@H]4C[C@H](O)C4)cc3)cc12` [Example 138, 6-Chloro-5-[4-(trans-3-hydroxycyclobutyl)phenyl]-1H-indole-3-carboxylic acid]: the half-maximal effective concentration (EC50) is 40.4 nM and the Emax turned out to be 117%.

On to `O=C(O)c1c[nH]c2cc(F)c(-c3ccc(C4(CO)CCC4)cc3)c(F)c12` [Example 141, 4,6-difluoro-5-(4-(1-(hydroxymethyl)cyclobutyl)phenyl)-1H-indole-3-carboxylic acid], for which it took 9.3 nM to reach a half-maximal effect (EC50) and the Maximum came out at 119%. For `O=C(O)c1c[nH]c2cc(Cl)c(-c3ccc(C4(CO)CCC4)c(F)c3)cc12` [Example 142, 6-chloro-5-{3-fluoro-4-[1-(hydroxymethyl)cyclobutyl]phenyl}-1H-indole-3-carboxylic acid], the EC50 is 21.5 nM and the Emax is 92.9%. On to `O=C(O)c1c[nH]c2cc(F)c(-c3ccc(C4(CO)CCC4)cc3)cc12` [Example 143, 6-fluoro-5-{4-[1-(hydroxymethyl)cyclobutyl]phenyl}-1H-indole-3-carboxylic acid], for which the EC50 was found to be 17.7 nM and the Emax was 194%. `O=C(O)c1c[nH]c2cc(Cl)c(-c3ccc4c(c3)OC[C@H](CO)O4)cc12` [Example 144, 6-chloro-5-[(2S)-2-(hydroxymethyl)-2,3-dihydro-1,4-benzodioxin-6-yl]-1H-indole-3-carboxylic acid]: the EC50 was determined as 236 nM and the Emax was 119%. On to `COc1cc(-c2c(F)cc3[nH]cc(C(=O)O)c3c2F)ccc1C1(O)CCC1` [Example 145], for which the EC50 amounted to 57.9 nM and the Emax was determined as 65.2%. For the compound `COc1cc(-c2cc3c(C(=O)O)c[nH]c3cc2Cl)ccc1[C@H]1C[C@H](O)C1` [Example 146, 6-chloro-5-[4-(trans-3-hydroxycyclobutyl)-3-methoxyphenyl]-1H-indole-3-carboxylic acid], the EC50 stood at 35.3 nM and the Emax amounted to 119%. The matching figures for `CS(=O)(=O)NC(=O)c1c[nH]c2cc(Cl)c(-c3ccc(C4(O)CCC4)cc3)cc12` [Example 147, 6-chloro-5-[4-(1-hydroxycyclobutyl)phenyl]-N-(methylsulfonyl)-1H-indole-3-carboxamide]: 10.1 nM and 132%. In the case of `CC(C)(CO)c1ccc(-c2cc3c(C(=O)O)c[nH]c3cc2Cl)cc1O` [Example 148, 6-chloro-5-[3-hydroxy-4-(1-hydroxy-2-methylpropan-2-yl)phenyl]-1H-indole-3-carboxylic acid], the response was half-maximal at 6.56 nM (EC50) and the Emax was found to be 119%. On to `COc1nc(-c2cc3c(C(=O)O)c[nH]c3cc2Cl)ccc1N1CCC(O)C1` (stereo not drawn) [Example 149, 6-chloro-5-[5-(3-hydroxypyrrolidin-1-yl)-6-methoxypyridin-2-yl]-1H-indole-3-carboxylic acid], for which the EC50 came to 76.9 nM and the Emax came to 88.9%. On to `O=C(O)c1c[nH]c2cc(F)c(-c3ccc(C4CCCO4)cc3)c(F)c12` (stereo not drawn) [Example 152, 4,6-difluoro-5-[4-(tetrahydrofuran-2-yl)phenyl]-1H-indole-3-carboxylic acid], for which the Emax worked out at 112%. Regarding `O=C(O)c1c[nH]c2cc(F)c(-c3ccc(C4CCCO4)cc3)c(F)c12` (stereo not drawn) [Example 153, 4,6-difluoro-5-[4-(tetrahydrofuran-2-yl)phenyl]-1H-indole-3-carboxylic acid], the Maximum amounted to 112.3%. Regarding `O=C(O)c1c[nH]c2cc(Cl)c(-c3ccc(OCCC4COC4)cc3)cc12` [Example 156, 6-chloro-5-(4-(2-(oxetan-3-yl)ethoxy)phenyl)-1H-indole-3-carboxylic acid], a half-maximal response (EC50) required 31.9 nM and the Emax is 98.9%. Regarding `O=C(O)c1c[nH]c2cc(Cl)c(-c3ccc(OCCCC4COC4)cc3)cc12` [Example 157, 6-chloro-5-(4-(3-(oxetan-3-yl)propoxy)phenyl)-1H-indole-3-carboxylic acid], the EC50 turned out to be 50.1 nM and the Emax worked out at 96.1%. As for `COC[C@@H](C)Oc1ccc(-c2cc3c(C(=O)O)c[nH]c3cc2Cl)cc1` [Example 158, 6-chloro-5-(4-{[(2R)-1-methoxypropan-2-yl]oxy}phenyl)-1H-indole-3-carboxylic acid], the EC50 was 125 nM and the Emax was found to be 146%. As for `COC[C@H](C)Oc1ccc(-c2cc3c(C(=O)O)c[nH]c3cc2Cl)cc1` [Example 159, 6-chloro-5-(4-{[(2S)-1-methoxypropan-2-yl]oxy}phenyl)-1H-indole-3-carboxylic acid], the EC50 was 47.8 nM and the Emax was found to be 98.6%. In the same order, the values of `O=C(O)c1c[nH]c2cc(Cl)c(-c3ccc(OCc4ncccn4)cc3)cc12` [Example 160, 6-chloro-5-[4-(pyrimidin-2-ylmethoxy)phenyl]-1H-indole-3-carboxylic acid] are 17.3 nM and 118%.
